According to patent US20230373934A1, “ANDROGEN RECEPTOR MODULATORS AND METHODS FOR THEIR USE” (ESSA Pharma, Inc., priority 2022, published 2023):

biological target: T1, androgen receptor (AR) (Homo sapiens, UniProt P10275, T878A); test: Androgen-induced PSA-luciferase assay, Luciferase Assay A (LNCaP transiently transfected with PSA (6.1 kb)-luciferase reporter); type: cell-based; details: LNCaP cells, 1 h pretreatment, R1881 (1 nM) 24 h, read-out: PSA-Luc IC50 Range
T1 construct: endogenous in cells; host or cells: LNCaP
T1 sequence (P10275 1-920 T878A): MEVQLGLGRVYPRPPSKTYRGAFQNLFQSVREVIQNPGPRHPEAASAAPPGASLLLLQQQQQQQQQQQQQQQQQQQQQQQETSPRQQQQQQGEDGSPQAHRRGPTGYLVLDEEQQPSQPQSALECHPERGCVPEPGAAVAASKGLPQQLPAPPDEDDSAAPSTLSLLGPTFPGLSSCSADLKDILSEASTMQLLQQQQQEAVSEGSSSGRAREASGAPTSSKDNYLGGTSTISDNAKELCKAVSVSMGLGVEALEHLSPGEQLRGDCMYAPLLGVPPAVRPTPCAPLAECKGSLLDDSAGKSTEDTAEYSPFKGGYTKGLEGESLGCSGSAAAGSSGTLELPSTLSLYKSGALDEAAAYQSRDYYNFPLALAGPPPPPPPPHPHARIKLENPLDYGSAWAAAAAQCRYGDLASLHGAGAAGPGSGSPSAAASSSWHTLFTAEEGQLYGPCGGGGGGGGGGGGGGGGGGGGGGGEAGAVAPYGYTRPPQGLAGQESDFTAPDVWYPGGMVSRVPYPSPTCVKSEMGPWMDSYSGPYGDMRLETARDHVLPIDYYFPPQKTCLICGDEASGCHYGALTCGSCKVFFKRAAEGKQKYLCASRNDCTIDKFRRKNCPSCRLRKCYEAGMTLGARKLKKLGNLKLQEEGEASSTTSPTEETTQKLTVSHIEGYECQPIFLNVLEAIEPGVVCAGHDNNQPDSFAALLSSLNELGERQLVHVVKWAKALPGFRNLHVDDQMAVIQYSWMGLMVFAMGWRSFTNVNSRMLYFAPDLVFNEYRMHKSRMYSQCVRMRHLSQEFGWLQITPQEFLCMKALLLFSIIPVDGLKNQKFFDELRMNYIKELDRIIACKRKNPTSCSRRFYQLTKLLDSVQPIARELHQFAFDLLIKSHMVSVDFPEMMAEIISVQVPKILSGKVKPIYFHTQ
In short: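 LNCaP cells transfected 24 h with PSA (6.1 kb)-luciferase reporter, pretreated 1 h with compound, then stimulated 24 h with R1881 (1 nM). Firefly luminescence in lysates normalized to protein content; IC50 from activity relative to R1881-induced vehicle control.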

SMILES | IC50
CC(C)(c1ccc(-c2cnc(N3CCC34CN(S(C)(=O)=O)C4)nc2)cc1)c1cc(Cl)c(OCCCl)c(C#N)c1 [Compound A138] | 500 to 2000 nM
CC(C)(c1ccc(OCc2ccnc(NS(C)(=O)=O)n2)cc1)c1cc(Cl)c(OCCCOC(=O)Nc2ccccc2)c(C#N)c1 [Compound A139] | 500 to 2000 nM
CC(C)(c1ccc(OC2CC3(C2)CN(S(C)(=O)=O)C3)cc1)c1cc(Cl)c(N2CCOCC2)c(C#N)c1 [Compound A140] | 500 to 2000 nM
CC(C)(c1ccc(OC2CC3(C2)CN(S(C)(=O)=O)C3)cc1)c1cc(Cl)c(OC2CC2)c(C#N)c1 [Compound A141] | 500 to 2000 nM
CC(C)(c1ccc(OCC23CC(NS(C)(=O)=O)(C2)C3)cc1)c1cc(Cl)c(N2CCOCC2)c(C#N)c1 [Compound A142] | 500 to 2000 nM
CC(C)(c1ccc(OCC23CC(NS(C)(=O)=O)(C2)C3)cc1)c1cc(Cl)c(OC2CC2)c(C#N)c1 [Compound A143] | 500 to 2000 nM
CC(C)(c1ccc(OCc2ccnc(NS(C)(=O)=O)n2)cc1)c1cc(Cl)c(OCC2CCC2)c(C#N)c1 [Compound A146] | 500 to 2000 nM
CC(C)(c1ccc(OCc2ccnc(NS(C)(=O)=O)n2)cc1)c1cc(Cl)c(OCC2CC2)c(C#N)c1 [Compound A147] | 500 to 2000 nM
CC(C)(c1ccc(OCc2ccnc(NS(C)(=O)=O)n2)cc1)c1cc(Cl)c(N2CCOC3(CC3)C2)c(C#N)c1 [Compound A148] | 500 to 2000 nM
CC(C)(c1ccc(OCc2ccnc(NS(C)(=O)=O)n2)cc1)c1cc(Cl)c(N2CC3CC2CO3)c(C#N)c1 (stereo not shown) [Compound A149] | 500 to 2000 nM
CC(C)(c1ccc(OC2CC3(CC(NS(C)(=O)=O)C3)C2)cc1)c1cc(Cl)c(OCCCl)c(C#N)c1 (stereo not shown) [Compound A150] | 500 to 2000 nM
CC(C)(c1ccc(-c2cnc(NC3CCN(S(C)(=O)=O)CC3)nc2)cc1)c1cc(Cl)c(OCCCl)c(C#N)c1 [Compound A151] | > 2000 nM
CC(C)(c1ccc(OCc2ccnc(NS(C)(=O)=O)n2)cc1)c1cc(Cl)c(N2CCCC(F)(F)C2)c(C#N)c1 [Compound A152] | 500 to 2000 nM
CC(C)(c1ccc(OCc2ccnc(NS(C)(=O)=O)n2)cc1)c1cc(Cl)c(N2CCC(F)CC2)c(C#N)c1 [Compound A153] | > 2000 nM
CS(=O)(=O)Nc1cnc2cc(-c3ccc(Oc4cc(F)c(OC5CC5)c(C#N)c4)cc3)ccc2n1 [Compound A154] | 500 to 2000 nM
CS(=O)(=O)Nc1cnc2cc(-c3ccc(Oc4cc(F)c(OCCCl)c(C#N)c4)cc3)ccc2n1 [Compound A155] | 500 to 2000 nM
CC(C)(c1ccc(OCc2ccnc(NS(C)(=O)=O)n2)cc1)c1cc(Cl)c(CN2CCOCC2)c(Cl)c1 [Compound A159] | > 2000 nM
CC(C)(c1ccc(OCc2ccnc(NS(C)(=O)=O)n2)cc1)c1cc(Cl)c(CN2CCCC(F)(F)C2)c(Cl)c1 [Compound A160] | > 2000 nM

SMILES | IC50
CC1(O)CN(Cc2c(Cl)cc(C(C)(C)c3ccc(OCc4ccnc(NS(C)(=O)=O)n4)cc3)cc2Cl)C1 [Compound A161] | > 2000 nM
CN(c1ccc(OCc2ccnc(NS(C)(=O)=O)n2)cc1)c1cc(Cl)c(OCCCl)c(C#N)c1 [Compound A162] | 500 to 2000 nM
CC(C)(c1ccc(OCc2ccnc(NS(C)(=O)=O)n2)cc1)c1cc(Cl)c(OC2CN(CC(F)(F)F)C2)c(C#N)c1 [Compound A165] | > 2000 nM
CC(C)(c1ccc(OCc2ccnc(NS(C)(=O)=O)n2)cc1)c1cc(Cl)c(CN2CC(F)(F)C2)c(Cl)c1 [Compound A166] | 500 to 2000 nM
COC1CN(c2c(Cl)cc(C(C)(C)c3ccc(OCc4ccnc(NS(C)(=O)=O)n4)cc3)cc2C#N)C1 [Compound A167] | > 2000 nM
CC(C)(c1ccc(OCc2ccnc(NS(C)(=O)=O)n2)cc1)c1cc(Cl)c(CCN2CC(F)(F)C2)c(C#N)c1 [Compound A168] | > 2000 nM
CC(C)(c1ccc(OCc2ccnc(NS(C)(=O)=O)n2)cc1)c1cc(Cl)c(CCN2CC(O)C2)c(C#N)c1 [Compound A169] | > 2000 nM
CC(C)(c1ccc(OCc2ccnc(NS(C)(=O)=O)n2)cc1)c1cnc(OCCCl)c(C#N)c1 [Compound A170] | > 2000 nM
CN(c1ccc(OCc2ccnc(NS(C)(=O)=O)n2)cc1)c1cc(C#N)c(OCCCl)cn1 [Compound A171] | > 2000 nM
CCCOc1c(Cl)cc(C(C)(C)c2ccc(OCc3ccnc(NS(C)(=O)=O)n3)cc2)cc1C#N [Compound A178] | < 500 nM
C=Cc1c(Cl)cc(C(C)(C)c2ccc(OCc3ccnc(NS(C)(=O)=O)n3)cc2)cc1C#N [Compound A179] | 500 to 2000 nM
CC(C)(c1ccc(OCc2ccnc(NS(C)(=O)=O)n2)cc1)c1cc(Cl)c(OCCN2C(=O)CCCC2=O)c(C#N)c1 [Compound A180] | > 2000 nM
CC(C)(c1ccc(OCc2ccnc(NS(C)(=O)=O)n2)cc1)c1cc(Cl)c(OCc2cnccn2)c(C#N)c1 [Compound A181] | > 2000 nM
CC(C)(c1ccc(OCc2ccnc(NS(C)(=O)=O)n2)cc1)c1cc(Cl)c(OCc2ccccc2)c(C#N)c1 [Compound A182] | 500 to 2000 nM
CC(C)(c1ccc(OCc2ccnc(NS(C)(=O)=O)n2)cc1)c1cc(Cl)c(OCCNS(C)(=O)=O)c(C#N)c1 [Compound A183] | > 2000 nM
CC(C)(c1ccc(OCc2ccnc(NS(C)(=O)=O)n2)cc1)c1cc(Cl)c(OCCN2CCNCC2)c(C#N)c1 [Compound A184] | > 2000 nM
CS(=O)(=O)Nc1nccc(COc2ccc(Cc3cc(Cl)c(OCCCl)c(C#N)c3)cc2)n1 [Compound A185] | > 2000 nM

biological target: T2, androgen receptor (AR) (Homo sapiens, UniProt P10275); test: Androgen-induced PSA-luciferase assay, Luciferase Assay B (cells stably expressing ARR2PB or PSA-firefly luciferase reporter, 384-well); type: cell-based; details: Luciferase Assay B (Compounds A186-A219 and A221-A245); stable luciferase reporter cells, 1 h pretreatment, R1881 24 h, serum-free; read-out: PSA-Luc IC50 Range
T2 sequence (P10275 1-920 T878A): T1 sequence (P10275 1-920 T878A)
Description: Luciferase Assay B: Cells stably expressing probasin promoter (ARR2PB) or human prostate-specific antigen (PSA)-firefly luciferase reporter were plated in poly-D-lysine-coated 384-well plates. 48 h after plating, cells were pretreated with vehicle or compounds for 1 h before adding R1881 under serum-free and phenol red-free conditions and then further incubated for 24 h. R1881 was added only for LNCaP cells. Firefly luciferase activities were determined by EnVision plate reader (Perkinemer) using the Steady-Glo Luciferase Reporter Assay System (Promega). Values were normalized to protein content. GraphPad Prism graphing software was used to calculate IC50 values. Luciferase Assay B was run for Compounds A186-A219 and A221-A245 in Table 2.
Statistical analyses were performed using GraphPad Prism (Version 6.01 for Windows; La Jolla, CA, USA). Comparisons between treatment and control groups were compared using Two-Way ANOVA with post-hoc Dunnett's and Tukey's tests. Differences were considered statistically significant at P values less than 0.05.

SMILES | IC50
CCCOc1c(Cl)cc(Oc2ccc(-c3ccc4nc(NS(C)(=O)=O)cnc4c3)cc2)cc1C#N [Compound A188] | 500 to 2000 nM
CS(=O)(=O)Nc1cnc2cc(-c3ccc(Oc4cc(Cl)c(OCCC(F)(F)F)c(C#N)c4)cc3)ccc2n1 [Compound A189] | 500 to 2000 nM
CS(=O)(=O)Nc1cc2ccc(-c3ccc(Oc4cc(Cl)c(OC5CC5)c(C#N)c4)cc3)cc2nn1 [Compound A192] | < 500 nM
CS(=O)(=O)Nc1cnc2ccc(-c3ccc(Oc4cc(Cl)c(OC5CC5)c(C#N)c4)cc3)cc2n1 [Compound A193] | 500 to 2000 nM
N#Cc1cc(Oc2ccc(-c3ccc4nc(N)cnc4c3)cc2)cc(Cl)c1OC1CC1 [Compound A194] | > 2000 nM
CN(c1cnc2cc(-c3ccc(Oc4cc(Cl)c(OC5CC5)c(C#N)c4)cc3)ccc2n1)S(C)(=O)=O [Compound A195] | 500 to 2000 nM
CS(=O)(=O)Nc1ncc(-c2ccc(Oc3cc(Cl)c(OC4CC4)c(C#N)c3)cc2)cn1 [Compound A196] | 500 to 2000 nM
CC(C)(c1ccc(-c2cnc(NS(C)(=O)=O)nc2)cc1)c1cc(Cl)c(OC2CC2)c(C#N)c1 [Compound A197] | 500 to 2000 nM
CNc1cnc2cc(-c3ccc(Oc4cc(Cl)c(OC5CC5)c(C#N)c4)cc3)ccc2n1 [Compound A200] | > 2000 nM
CC(C)(c1ccc(OCc2ccnc(N3CCOCC3)n2)cc1)c1cc(Cl)c(OC2CC2)c(C#N)c1 [Compound A201, 3-chloro-2-cyclopropoxy-5-(2-(4-((2-morpholinopyrimidin-4-yl)methoxy)phenyl)propan-2-yl)benzonitrile] | 500 to 2000 nM
N#Cc1cc(Oc2ccc(-c3ccc4nc(N5CCOCC5)cnc4c3)cc2)cc(Cl)c1OC1CC1 [Compound A204] | > 2000 nM
N#Cc1cc(Oc2ccc(-c3ccc4nc(N5CCS(=O)(=O)CC5)cnc4c3)cc2)cc(Cl)c1OC1CC1 [Compound A206] | 500 to 2000 nM
CS(=O)(=O)NCc1cnc2cc(-c3ccc(Oc4cc(Cl)c(OC5CC5)c(C#N)c4)cc3)ccc2n1 [Compound A207, N-((6-(4-(3-chloro-5-cyano-4-cyclopropoxyphenoxy)phenyl)quinoxalin-2-yl)methyl)methanesulfonamide] | 500 to 2000 nM
Cn1nc(NS(C)(=O)=O)c2ccc(-c3ccc(Oc4cc(Cl)c(OC5CC5)c(C#N)c4)cc3)cc21 [Compound A209] | > 2000 nM
